In article PMC3066128 (PLoS Biology, 2011):
Where two headings read alike, the source gives them in different places.

Assays:
human α7 nAChR Q117A = target: T1, human α7 nAChR Q117A (Homo sapiens, UniProt P36544, Q139A); assay: Two-electrode voltage clamp, α7 nAChR Q117A in Xenopus oocytes; assay type: cell-based; conditions: co-applied with EC50 acetylcholine
T1 construct: expressed in transfected cells; host or cells: Xenopus oocytes injected with cRNA (pMXT)
From the text: (§1) To address this question, we performed alanine-scanning mutagenesis of the homologous residues in the human GlyR or nAChR using structure-based sequence alignments with AChBP (see Figure S1). The two-electrode voltage-clamp technique was used to measure ligand potency on wild type and mutant GlyR or nAChR expressed in Xenopus oocytes. […] One of these mutants, F207A, was previously characterized in the work from Grundzinska et al..
(§2) For d-TC, previous mutagenesis studies have been carried out either on the muscle-type nAChR [1] or 5-HT3R [5],[12]. […] Both model systems either complicate the mutational analysis or make it difficult to derive conclusions that can be generalized to other CLRs. Here, we chose the human α7 nAChR to characterize the effect of homologous contact mutations on the potency of d-TC. The α7 nAChR, which is also a target of d-TC [4], is closely related to Ac-AChBP and is an attractive model system to extrapolate the results obtained from our X-ray crystal structures.
(§3) Competitive binding assays with ^3H-epibatidine were carried out as previously published with minor modifications (see Text S1). Electrophysiological assays were carried out using the two-electrode voltage clamp technique. The cDNA encoding human α1 GlyR was subcloned into pGEM-HE for oocyte expression with a PCR strategy and verified by sequencing. […]

human α7 nAChR W55A = target: T2, human α7 nAChR W55A (Homo sapiens, UniProt P36544, W77A); assay: Two-electrode voltage clamp, α7 nAChR W55A in Xenopus oocytes; assay type: cell-based; conditions: co-applied with EC50 acetylcholine
T2 construct: expressed in transfected cells; host or cells: Xenopus oocytes injected with cRNA (pMXT)
T2 sequence (P36544 23-502 W77A): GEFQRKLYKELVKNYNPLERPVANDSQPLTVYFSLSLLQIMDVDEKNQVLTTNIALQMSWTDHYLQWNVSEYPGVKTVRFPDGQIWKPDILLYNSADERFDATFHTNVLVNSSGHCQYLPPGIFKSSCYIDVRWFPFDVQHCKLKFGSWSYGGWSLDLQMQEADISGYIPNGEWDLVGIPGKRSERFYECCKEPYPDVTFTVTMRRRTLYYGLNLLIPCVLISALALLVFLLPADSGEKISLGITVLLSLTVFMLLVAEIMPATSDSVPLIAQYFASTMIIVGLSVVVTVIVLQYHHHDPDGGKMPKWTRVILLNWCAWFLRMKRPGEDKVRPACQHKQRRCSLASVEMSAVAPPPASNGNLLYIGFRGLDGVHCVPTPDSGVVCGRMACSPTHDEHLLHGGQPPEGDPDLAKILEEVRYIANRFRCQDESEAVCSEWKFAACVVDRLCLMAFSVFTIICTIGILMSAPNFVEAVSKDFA
From the text: as §1, §2, §3

Ls-AChBP = Ls-AChBP (Lymnaea stagnalis, UniProt P58154); assay: biochemical; assay type: binding
Chain of Ls-AChBP (P58154 20-229): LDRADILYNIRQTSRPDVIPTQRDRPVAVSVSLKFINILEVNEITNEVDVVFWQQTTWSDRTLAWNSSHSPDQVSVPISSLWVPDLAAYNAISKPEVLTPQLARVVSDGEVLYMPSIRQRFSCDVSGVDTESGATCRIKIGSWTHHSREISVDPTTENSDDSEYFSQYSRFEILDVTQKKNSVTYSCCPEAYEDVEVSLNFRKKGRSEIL
Procedure: (§4) Competitive binding assays with ^3H-epibatidine were carried out as previously published with minor modifications (see Text S1). Electrophysiological assays were carried out using the two-electrode voltage clamp technique. The cDNA encoding human α1 GlyR was subcloned into pGEM-HE for oocyte expression with a PCR strategy and verified by sequencing. The cDNA was linearized with NheI and transcribed with the T7 mMessage mMachine kit from Ambion. The cDNA encoding the human α7 nAChR was cloned into pMXT and linearized with BamHI for transcription with the SP6 mMessage mMachine kit from Ambion. All mutants were engineered using a Quikchange method (Stratagene) and verified by sequencing. Recordings were obtained from oocytes 2–5 d after injection with 50 nl of ∼1 ng/nl RNA. […] Student's t test was used for statistical comparison of paired observations.
Human neuroblastoma cells (SH-SY5Y) stably expressing human α7 nAChR were obtained from Christian Fuhrer (Department of Neurochemistry, Brain Research Institute, University of Zurich). […] The SPA beads were allowed to settle for 2-4 h and the radioactivity was measured in a Wallac 1450 MicroBeta liquid scintillation counter.

5-HT3R = conditions: human versus mouse 5-HT3R; cited from earlier work
human α7 nAChR E193A = target: T3, human α7 nAChR E193A (Homo sapiens, UniProt P36544, E215A); assay: Two-electrode voltage clamp, α7 nAChR E193A in Xenopus oocytes; assay type: cell-based; conditions: co-applied with EC50 acetylcholine
T3 construct: expressed in transfected cells; host or cells: Xenopus oocytes injected with cRNA (pMXT)
T3 sequence (P36544 23-502 E215A): as the sequence (P36544 23-502 W77A) above, with A55W, E193A counted along it
From the text: as §1, §2, §3

mouse 5-HT3R = target: mouse 5-HT3R; set-up: method as in PMID 10026168; conditions: taken from previous study; cited from earlier work
human α7 nAChR L119A = target: T4, human α7 nAChR L119A (Homo sapiens, UniProt P36544, L141A); assay: Two-electrode voltage clamp, α7 nAChR L119A in Xenopus oocytes; assay type: cell-based; conditions: co-applied with EC50 acetylcholine
T4 construct: expressed in transfected cells; host or cells: Xenopus oocytes injected with cRNA (pMXT)
T4 sequence (P36544 23-502 L141A): as the sequence (P36544 23-502 W77A) above, with A55W, L119A counted along it
From the text: as §1, §2, §3

human α7 nAChR wt = target: T5, human α7 nAChR wt (Homo sapiens, UniProt P36544); assay: Two-electrode voltage clamp, wild type α7 nAChR in Xenopus oocytes; assay type: cell-based; conditions: co-applied with EC50 acetylcholine
T5 construct: expressed in transfected cells; host or cells: Xenopus oocytes injected with cRNA (pMXT)
T5 sequence (P36544 23-502): as the sequence (P36544 23-502 W77A) above, with A55W counted along it
From the text: as §1, §2, §3

human α7 nAChR Y93A = target: T6, human α7 nAChR Y93A (Homo sapiens, UniProt P36544, Y115A); assay: Two-electrode voltage clamp, α7 nAChR Y93A in Xenopus oocytes; assay type: cell-based; conditions: co-applied with EC50 acetylcholine
T6 construct: expressed in transfected cells; host or cells: Xenopus oocytes injected with cRNA (pMXT)
T6 sequence (P36544 23-502 Y115A): as the sequence (P36544 23-502 W77A) above, with A55W, Y93A counted along it
From the text: as §1, §2, §3

human α7 nAChR = target: T7, human α7 nAChR (Homo sapiens, UniProt P36544); assay: biochemical; assay type: binding
T7 construct: expressed in transfected cells
T7 sequence (P36544 23-502): as the sequence (P36544 23-502 W77A) above, with A55W counted along it
Procedure: Human neuroblastoma cells (SH-SY5Y) stably expressing human α7 nAChR were obtained from Christian Fuhrer (Department of Neurochemistry, Brain Research Institute, University of Zurich). The cells were maintained in DMEM/F12 (Dulbecco's Modified Eagle Medium / Nutrient Mixture F-12) supplemented with 10% fetal calf serum (FCS), 50 IU/mL penicillin, 50 µg/mL streptomycin and 0.1 mg/ml geneticin in 5% CO2 humidified atmosphere at 37°C. Batches of cells from several passages were washed 3x with PBS, harvested and after centrifuging aliquots, the cell-pellets were stored at -80°C until use. Although there appeared to be little batch-to-batch variation, only one passage was used for the triplicate experiments as described below. […] The SPA beads were allowed to settle for 2-4 h and the radioactivity was measured in a Wallac 1450 MicroBeta liquid scintillation counter. All radioligand binding data were evaluated by a nonlinear, least-squares curve fitting procedure using Graphpad Prism (version 5.0a, GraphPad Software, Inc., San Diego, CA). […]
Frozen cell pellets with the human α7 nAChR were thawed, homogenized in ice-cold binding buffer, sonicated before use and added at 0.1 mg/ml. […] After drying the filter-plates, scintillation fluid (MicroScint, Perkin Elmer) was added and the radioactivity was measured as above.

human α7 nAChR S148A = target: T8, human α7 nAChR S148A (Homo sapiens, UniProt P36544, S170A); assay: Two-electrode voltage clamp, α7 nAChR S148A in Xenopus oocytes; assay type: cell-based; conditions: co-applied with EC50 acetylcholine
T8 construct: expressed in transfected cells; host or cells: Xenopus oocytes injected with cRNA (pMXT)
T8 sequence (P36544 23-502 S170A): as the sequence (P36544 23-502 W77A) above, with A55W, S148A counted along it
From the text: as §1, §2, §3

human α7 nAChR G167A = target: T9, human α7 nAChR G167A (Homo sapiens, UniProt P36544, G189A); assay: Two-electrode voltage clamp, α7 nAChR G167A in Xenopus oocytes; assay type: cell-based; conditions: co-applied with EC50 acetylcholine
T9 construct: expressed in transfected cells; host or cells: Xenopus oocytes injected with cRNA (pMXT)
T9 sequence (P36544 23-502 G189A): as the sequence (P36544 23-502 W77A) above, with A55W, G167A counted along it
From the text: as §1, §2, §3

human α7 nAChR S36A = target: T10, human α7 nAChR S36A (Homo sapiens, UniProt P36544, S58A); assay: Two-electrode voltage clamp, α7 nAChR S36A in Xenopus oocytes; assay type: cell-based; conditions: co-applied with EC50 acetylcholine
T10 construct: expressed in transfected cells; host or cells: Xenopus oocytes injected with cRNA (pMXT)
T10 sequence (P36544 23-502 S58A): as the sequence (P36544 23-502 W77A) above, with S36A, A55W counted along it
From the text: as §1, §2, §3

muscle-type nAChR = tested on: muscle-type nAChR; set-up: method as in PMID 8415719; conditions: heteropentameric muscle-type nAChR; cited from earlier work
α1 GlyR F63A [1] = conditions: IC50 α1 GlyR F63A (ref 23) over wt
α1 GlyR R65A [2] = conditions: ref Grudzinska et al. 23; cited from earlier work
α1 GlyR R65A [3] = conditions: IC50 α1 GlyR R65A (ref 23) over wt
human α1 GlyR A101F = human α1 GlyR A101F (Homo sapiens, UniProt P23415, A129F); assay: cell-based; conditions: for mut/wt: IC50 α1 GlyR A101F over wt
Chain of human α1 GlyR A101F (P23415 29-457 A129F): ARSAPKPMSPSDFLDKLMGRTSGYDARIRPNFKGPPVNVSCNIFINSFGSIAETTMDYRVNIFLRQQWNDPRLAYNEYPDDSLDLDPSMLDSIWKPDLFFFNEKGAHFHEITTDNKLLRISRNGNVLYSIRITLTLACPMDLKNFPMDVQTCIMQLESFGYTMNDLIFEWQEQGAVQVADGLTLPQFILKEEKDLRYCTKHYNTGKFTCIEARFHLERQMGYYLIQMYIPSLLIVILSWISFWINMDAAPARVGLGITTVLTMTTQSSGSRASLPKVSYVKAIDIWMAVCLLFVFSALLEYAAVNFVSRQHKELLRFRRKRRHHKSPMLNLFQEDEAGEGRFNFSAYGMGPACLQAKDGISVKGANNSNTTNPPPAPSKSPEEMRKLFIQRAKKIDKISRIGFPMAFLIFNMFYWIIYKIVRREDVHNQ
Procedure: as §1, §4

human α1 GlyR Q177A = human α1 GlyR Q177A (Homo sapiens, UniProt P23415, Q205A); assay: cell-based; conditions: for mut/wt: IC50 α1 GlyR Q177A over wt
Chain of human α1 GlyR Q177A (P23415 29-457 Q205A): as the sequence (P23415 29-457 A129F) above, with F101A, Q177A counted along it
Procedure: as §1, §4

human α1 GlyR F44A = human α1 GlyR F44A (Homo sapiens, UniProt P23415, F72A); assay: cell-based; conditions: for mut/wt: IC50 α1 GlyR F44A over wt
Chain of human α1 GlyR F44A (P23415 29-457 F72A): as the sequence (P23415 29-457 A129F) above, with F44A, F101A counted along it
Procedure: as §1, §4

human α1 GlyR S158A = human α1 GlyR S158A (Homo sapiens, UniProt P23415, S186A); assay: cell-based; conditions: for mut/wt: IC50 α1 GlyR S158A over wt
Chain of human α1 GlyR S158A (P23415 29-457 S186A): as the sequence (P23415 29-457 A129F) above, with F101A, S158A counted along it
Procedure: as §1, §4

human α1 GlyR S129A = human α1 GlyR S129A (Homo sapiens, UniProt P23415, S157A); assay: cell-based; conditions: for mut/wt: IC50 α1 GlyR S129A over wt
Chain of human α1 GlyR S129A (P23415 29-457 S157A): as the sequence (P23415 29-457 A129F) above, with F101A, S129A counted along it
Procedure: as §1, §4

human α1 GlyR F207A = human α1 GlyR F207A (Homo sapiens, UniProt P23415, F235A); assay: cell-based
Chain of human α1 GlyR F207A (P23415 29-457 F235A): as the sequence (P23415 29-457 A129F) above, with F101A, F207A counted along it
Procedure: as §1, §4

human α1 GlyR wt = human α1 GlyR wt (Homo sapiens, UniProt P23415); assay: cell-based
Chain of human α1 GlyR wt (P23415 29-457): as the sequence (P23415 29-457 A129F) above, with F101A counted along it
Procedure: as §1, §4

human α1 GlyR I210A = human α1 GlyR I210A (Homo sapiens, UniProt P23415, I238A); assay: cell-based
Chain of human α1 GlyR I210A (P23415 29-457 I238A): as the sequence (P23415 29-457 A129F) above, with F101A, I210A counted along it
Procedure: as §1, §4

human α1 GlyR Q67A = human α1 GlyR Q67A (Homo sapiens, UniProt P23415, Q95A); assay: cell-based; conditions: for mut/wt: IC50 α1 GlyR Q67A over wt
Chain of human α1 GlyR Q67A (P23415 29-457 Q95A): as the sequence (P23415 29-457 A129F) above, with Q67A, F101A counted along it
Procedure: as §1, §4

human α1 GlyR L127A = human α1 GlyR L127A (Homo sapiens, UniProt P23415, L155A); assay: cell-based; conditions: for mut/wt: IC50 α1 GlyR L127A over wt
Chain of human α1 GlyR L127A (P23415 29-457 L155A): as the sequence (P23415 29-457 A129F) above, with F101A, L127A counted along it
Procedure: as §1, §4

α1 GlyR F63A [4] = conditions: ref Grudzinska et al. 23; cited from earlier work
human α1 GlyR = conditions: taken from previous study; cited from earlier work

T1 sequence (P36544 23-502 Q139A): as the sequence (P36544 23-502 W77A) above, with A55W, Q117A counted along it

COc1cc2c3cc1Oc1cc(ccc1O)C[C@@H]1c4c(cc(OC)c(O)c4Oc4ccc(cc4)C[C@@H]3N(C)CC2)CC[N+]1(C)C [d-tubocurarine]
IC50 (human α7 nAChR Q117A): 2.28 ± 0.14 µM | IC50 (human α7 nAChR W55A): 16.7 ± 0.94 µM | Ki (Ls-AChBP): 0.171 ± 0.0183 µM | difference in affinity between human and mouse 5-HT3R (5-HT3R): more than 1,000 fold | IC50 (human α7 nAChR E193A): 8.1 ± 0.68 µM | Ki (mouse 5-HT3R): 0.138 ± 0.022 µM | IC50 (human α7 nAChR L119A): 9.19 ± 2.16 µM | IC50 (human α7 nAChR wt): 1.19 ± 0.17 µM | IC50 (human α7 nAChR Y93A): 7.81 ± 0.98 µM | Ki (human α7 nAChR; competition with 3H-methyllycaconitine, human α7 nAChR, read-out: Ki): 2.98 µM | IC50 (human α7 nAChR S148A): 176 ± 10.8 µM | IC50 (human α7 nAChR G167A): significant decrease in the IC50-values | IC50 (human α7 nAChR G167A; read-out: IC50): 0.043 ± 0.002 µM | IC50 (human α7 nAChR S36A): 2.25 ± 0.52 µM | difference in affinity between the two binding sites (muscle-type nAChR): 100 fold

O=C1C[C@@H]2OCC=C3CN4CC[C@]56c7ccccc7N1[C@H]5[C@H]2[C@H]3C[C@H]46 [strychnine]
Ki (Ls-AChBP): 0.224 ± 0.0263 µM | mut/wt (α1 GlyR F63A [1]): 250 | mut/wt (α1 GlyR F63A [1]; listed as Strychnine): 256 | IC50 (α1 GlyR R65A [2]): 0.16 ± 0.05 µM | mut/wt (α1 GlyR R65A [3]): 3 | mut/wt (α1 GlyR R65A [3]; listed as Strychnine): 3.4 | IC50 (human α1 GlyR A101F): 0.583 ± 0.0476 µM | mut/wt (human α1 GlyR A101F): ~10 | mut/wt (human α1 GlyR A101F; listed as Strychnine): 12 | IC50 (human α1 GlyR Q177A): 0.00336 ± 0.00063 µM | mut/wt (human α1 GlyR Q177A): apparent increase in strychnine-potency | mut/wt (human α1 GlyR Q177A; listed as Strychnine): 0.1 | IC50 (human α1 GlyR Q177A; α1 GlyR Q177A, co-applied with EC50 glycine): significant decrease in the IC50-values | IC50 (human α1 GlyR F44A): 0.13 ± 0.00406 µM | mut/wt (human α1 GlyR F44A): 3 | mut/wt (human α1 GlyR F44A; listed as Strychnine): 2.8 | IC50 (human α1 GlyR S158A): 13.8 µM | mut/wt (human α1 GlyR S158A): 300 | mut/wt (human α1 GlyR S158A; listed as Strychnine): 294 | IC50 (human α1 GlyR S129A): 0.358 ± 0.144 µM | mut/wt (human α1 GlyR S129A): ~10 | mut/wt (human α1 GlyR S129A; listed as Strychnine): 8 | IC50 (human α1 GlyR F207A): 5590 ± 1890 µM | mut/wt (human α1 GlyR F207A; IC50 α1 GlyR F207A over wt): 119,444 | IC50 (human α1 GlyR wt): 0.0468 ± 0.00875 µM | IC50 (human α1 GlyR I210A): 0.103 ± 0.019 µM | mut/wt (human α1 GlyR I210A; IC50 α1 GlyR I210A over wt): 2.2 | IC50 (human α1 GlyR Q67A): 0.689 ± 0.176 µM | mut/wt (human α1 GlyR Q67A): 15 | mut/wt (human α1 GlyR Q67A; listed as Strychnine): 14.7 | IC50 (human α1 GlyR L127A): 0.376 ± 0.0692 µM | mut/wt (human α1 GlyR L127A): ~10 | mut/wt (human α1 GlyR L127A; listed as Strychnine): 8 | IC50 (α1 GlyR F63A [4]): 12 µM | Ki (human α7 nAChR): 4.85 µM | Ki (human α1 GlyR): 0.016 ± 0.002 µM
